In article PMC11191402, “High-Affinity NIR-Fluorescent Inhibitors for Tumor Imaging via Carbonic Anhydrase IX” (Bioconjugate Chemistry, 2024):

Target: T1, CAIX expressed in live HeLa cells (Homo sapiens, UniProt Q16790)
T1 construct: an open reading frame for the full-length CAIX protein (1–459 amino acids) without a tag; expressed in transfected cells; host or cells: HeLa cells transfected with pCMV-CAIX (TurboFect), normoxia
Assay: NIR-fluorescent compound dosing on live HeLa cells (direct binding)
Text: To measure NIR-fluorescent compound binding to CAIX expressed in cancer cells, the GZ22-4 compound was applied in different concentrations to live HeLa cells grown under hypoxia and normoxia, as described in the Materials and Methods section, and was previously performed for the fluorescein-conjugated CAIX inhibitor GZ19-32.[16] […] The difference was hidden in the low signal-to-noise ratio.
To increase the amount of CAIX expression, the HeLa cells were transfected with the CAIX-encoding plasmid pCMV-CAIX. There was a dramatic increase in CAIX expression observed both in the dosing curve and fluorescence microscopy results. […] In the case of transfection, we can see both the specific CAIX-dependent signal and relatively weak nonspecific binding of the dye to unknown targets at concentrations above approximately 1 μM (shown as a dashed curve, increasing at the same concentrations as the nontransfected cell dosing curve).
Fluorescence values corresponding to the transfection effect were obtained by subtraction of nontransfected values from transfected fluorescence values, showing the resultant data points as open squares. […] However, the determination of the Kd via dosing curves at such high protein concentrations is not accurate and can only serve as an estimate of affinity.
Both assays were performed as previously described.[16] In brief, to measure fluorescent compound binding to CAIX expressed in live cells, HeLa cells were seeded in 12-well plates and either incubated in hypoxia for 3 days or transfected with the CAIX-coding plasmid pCMV-CAIX next day after seeding. The TurboFect transfection reagent (Thermo Fisher) was used for transfection. […] 150 μL of the suspension from each well was transferred to Thermo Scientific Nunc MicroWell 96-Well Optical-Bottom Plates for fluorescence and absorbance measurements. 759 nm excitation and 800 nm emission wavelengths were used to measure fluorescence on a Synergy HTX, BioTek plate reader. 650 nm wavelength was used for absorbance measurements.

Kd (HeLa transfected with pCMV-CAIX, normoxia, nontransfected values subtracted, 120 nM CAIX, only an estimate of affinity, read-out: Kd from dosing curve on CAIX-transfected HeLa cells): 1 nM
concentration above which nonspecific binding of the dye to unknown targets is seen (transfected and nontransfected HeLa cell cultures): > 1 µM
SMILES: CC1(C)C(/C=C/C2=C(Oc3ccc(CCC(=O)NCCOCCOCCOCCOCCOCCOCCOCCOCCOCCOCCOCCNC(=O)CCS(=O)(=O)c4c(F)c(F)c(S(N)(=O)=O)c(F)c4NC4CCCCCCC4)cc3)C(=C/C=C3\N(CCCCS(=O)(=O)[O-])c4ccccc4C3(C)C)/CCC2)=[N+](CCCCS(=O)(=O)[O-])c2ccccc21.[Na+] [GZ22-4, Sodium 4-((Z)-2-((E)-2-(2-(4-(43-((2-(Cyclooctylamino)-3,5,6-trifluoro-4-sulfamoylphenyl)sulfonyl)-3,41-dioxo-7,10,13,16,19,22,25,28,31,34,37-undecaoxa-4,40-diazatritetracontyl)phenoxy)-3-((E)-2-(3,3-dimethyl-1-(4-sulfonatobutyl)-3H-indol-1-ium-2-yl)vinyl)cyclohex-2-en-1-ylidene)ethylidene)-3,3-dimethylindolin-1-yl)butane-1-sulfonate]
fluorescence signal in hypoxia vs normoxia (nontransfected live HeLa cells, plate reader): no difference in the fluorescence signal in hypoxia vs normoxia
